Test results as given in article PMC5650409 (Oncotarget, 2017).

How the values were obtained:
[1] = Description: Urine and blood samples were collected at 15 min post-injection and blood was centrifuged (8000 rpm, 10 min) to separate out the plasma. Urine and plasma samples were analyzed by radio-TLC, as above.
[2] = In vitro stability in fetal bovine serum; format: in vitro ADME; conditions: 37 °C, 120 min
[3] = Octanol-water partition coefficient determination; format: physicochemical; conditions: n-octanol / PBS pH 7.4
Description: After vortexing for 10 min, the tube was centrifuged (8000 rpm, 3 min) for layer separation. An aliquot of the aqueous and n-octanol layers was collected and measured by a γ-counter.

[4] = system: T3M4 tumor-bearing nude mice; assay: In vivo biodistribution; conditions: n = 5
Description: All animal experiments were performed in adherence with the Peking Union Medical College Hospital (PUMCH) guidelines for the use of laboratory animals and were approved by PUMCH Clinical Center Animal Care and Use Committee. […] Zhang from the Department of General Surgery, Peking Union Medical College Hospital) and SK-BR-3 breast cancer cells (kindly supplied by Prof. Wei Ge from Department of Immunology, Institute of Basic Medical Sciences), into the right shoulder of female athymic nude mice (Laboratory Animal Center of PUMCH). Tumor sizes were monitored with a vernier caliper. […] After 72 h, those tumor-bearing mice with a visible mass in left thigh muscle, were selected and used as models with aseptic inflammation. […] At 5 min, 30 min, 60 min and 120 min after injection, mice were sacrificed by humane euthanasia - cervical dislocation. Blood was obtained through the eyeball, and tissues and organs of interests (brain, heart, lung, liver, pancreas, kidney, spleen, intestine, muscle, stomach, bone and tumor) were then weighed and counted. All measurements were background-subtracted and decay-corrected to the time of killing and then averaged. Radioactivity values were calculated and presented as the percentage injected dose per gram (%ID/g) of tissue.

T3M4 tumor-bearing mice = assay: Small-animal PET imaging of T3M4 xenografts (with aseptic inflammation, with and without β-D-lactose blocking); format: in vivo; conditions: for tumor uptake (PET ROI-derived): T3M4 tumor, 60 min post-injection
Description: (§1) All animal experiments were performed in adherence with the Peking Union Medical College Hospital (PUMCH) guidelines for the use of laboratory animals and were approved by PUMCH Clinical Center Animal Care and Use Committee. The pancreatic cancer tumor-bearing models were generated by subcutaneous injection of 5 × 10^6 human T3M4 pancreatic cancer cells (kindly supplied by Prof. Taiping Zhang from the Department of General Surgery, Peking Union Medical College Hospital) and SK-BR-3 breast cancer cells (kindly supplied by Prof. Wei Ge from Department of Immunology, Institute of Basic Medical Sciences), into the right shoulder of female athymic nude mice (Laboratory Animal Center of PUMCH). Tumor sizes were monitored with a vernier caliper. When the tumor reached approximately 3-5 mm in diameter, T3M4 tumor-bearing mice were intramuscularly injected with 0.2 mL turpentine into the left hind leg muscle. After 72 h, those tumor-bearing mice with a visible mass in left thigh muscle, were selected and used as models with aseptic inflammation.
(§2) In vivo PET imaging was performed using a small-animal PET scanner Inveon (Siemens Medical systems, USA). […] Mice were anesthetized with isoflurane and placed on a heated pad (to provide the animal with warmth throughout the scanning). PET images were acquired at 30, 60, 90 and 120 min post-injection. After the acquisition, region of interests (ROIs), including tumor, muscle, brain and kidney were drawn over major organs on decay-corrected whole-body coronal images using Inveon Research Workplace 4.1 software. Radioactivity concentration of organs was obtained from the mean pixel values within the multiple ROI volume, and converted into MBq/mL using a conversion factor. Assuming the density of tissue was 1 g/cm^3, the ROIs were converted to MBq/g and then divided by the administered activity, to obtain an imaging ROI-derived %ID/g.

[5] = system: SK-BR-3 tumor-bearing mice; assay: Small-animal PET imaging of SK-BR-3 xenografts; format: in vivo
Description: as §1, §2

[6] = 15 min after intravenous injection, radio-TLC
[7] = SK-BR-3 xenografts, 60 min post-injection

- percentage of intact probe in plasma [1, 6]: no less than 94%
- percentage of intact probe in urine [1, 6]: no less than 94%
- dehalogenation in vivo ([1]; plasma and urine 15 min after intravenous injection, supported by low bone uptake): Almost no dehalogenation was detected
- intact ^18F-FEL in fetal bovine serum [2]: greater than 95%
- log P [3]: −2.62 ± 0.12
- Biodistribution, Blood ([4]; 5 min after injection): 9.58 ± 0.51 %ID/g
- Biodistribution, Bone ([4]; 5 min after injection): 1.34 ± 0.23 %ID/g
- Biodistribution, Brain ([4]; 5 min after injection): 0.67 ± 0.23 %ID/g
- Biodistribution, Heart ([4]; 5 min after injection): 3.81 ± 0.62 %ID/g
- Biodistribution, Intestine ([4]; 5 min after injection): 2.57 ± 0.30 %ID/g
- Biodistribution, Kidney ([4]; 5 min after injection): 19.4 ± 4.76 %ID/g
- Biodistribution, Liver ([4]; 5 min after injection): 2.12 ± 0.21 %ID/g
- Biodistribution, Lung ([4]; 5 min after injection): 2.29 ± 0.35 %ID/g
- Biodistribution, Muscle ([4]; 5 min after injection): 2.50 ± 0.15 %ID/g
- Biodistribution, Pancreas ([4]; 5 min after injection): 2.90 ± 1.28 %ID/g
- Biodistribution, Spleen ([4]; 5 min after injection): 1.89 ± 0.62 %ID/g
- Biodistribution, Stomach ([4]; 5 min after injection): 3.60 ± 0.64 %ID/g
- Biodistribution, Tumor ([4]; 5 min after injection): 6.67 ± 0.42 %ID/g
- Biodistribution, Blood ([4]; 30 min after injection): 2.31 ± 0.67 %ID/g
- Biodistribution, Bone ([4]; 30 min after injection): 0.60 ± 0.26 %ID/g
- Biodistribution, Brain ([4]; 30 min after injection): 0.16 ± 0.04 %ID/g
- Biodistribution, Heart ([4]; 30 min after injection): 0.88 ± 0.25 %ID/g
- Biodistribution, Intestine ([4]; 30 min after injection): 0.94 ± 0.16 %ID/g
- Biodistribution, Kidney ([4]; 30 min after injection): 9.59 ± 1.80 %ID/g
- Biodistribution, Liver ([4]; 30 min after injection): 1.36 ± 0.07 %ID/g
- Biodistribution, Lung ([4]; 30 min after injection): 1.91 ± 0.42 %ID/g
- Biodistribution, Muscle ([4]; 30 min after injection): 0.91 ± 0.12 %ID/g
- Biodistribution, Pancreas ([4]; 30 min after injection): 0.69 ± 0.33 %ID/g
- Biodistribution, Spleen ([4]; 30 min after injection): 0.77 ± 0.19 %ID/g
- Biodistribution, Stomach ([4]; 30 min after injection): 1.03 ± 0.33 %ID/g
- Biodistribution, Tumor ([4]; 30 min after injection): 3.24 ± 0.11 %ID/g
- Biodistribution, Blood ([4]; 60 min after injection): 0.87 ± 0.31 %ID/g
- Biodistribution, Bone ([4]; 60 min after injection): 0.31 ± 0.02 %ID/g
- Biodistribution, Brain ([4]; 60 min after injection): 0.10 ± 0.02 %ID/g
- Biodistribution, Heart ([4]; 60 min after injection): 0.38 ± 0.10 %ID/g
- Biodistribution, Intestine ([4]; 60 min after injection): 0.56 ± 0.35 %ID/g
- Biodistribution, Kidney ([4]; 60 min after injection): 4.35 ± 1.53 %ID/g
- Biodistribution, Liver ([4]; 60 min after injection): 0.83 ± 0.23 %ID/g
- Biodistribution, Lung ([4]; 60 min after injection): 0.71 ± 0.37 %ID/g
- Biodistribution, Muscle ([4]; 60 min after injection): 0.77 ± 0.30 %ID/g
- Biodistribution, Pancreas ([4]; 60 min after injection): 0.63 ± 0.34 %ID/g
- Biodistribution, Spleen ([4]; 60 min after injection): 0.56 ± 0.30 %ID/g
- Biodistribution, Stomach ([4]; 60 min after injection): 0.82 ± 0.61 %ID/g
- Biodistribution, Tumor ([4]; 60 min after injection): 1.03 ± 0.09 %ID/g
- Biodistribution, Blood ([4]; 120 min after injection): 0.29 ± 0.12 %ID/g
- Biodistribution, Bone ([4]; 120 min after injection): 0.12 ± 0.02 %ID/g
- Biodistribution, Brain ([4]; 120 min after injection): 0.06 ± 0.03 %ID/g
- Biodistribution, Heart ([4]; 120 min after injection): 0.20 ± 0.04 %ID/g
- Biodistribution, Intestine ([4]; 120 min after injection): 0.20 ± 0.07 %ID/g
- Biodistribution, Kidney ([4]; 120 min after injection): 2.08 ± 0.74 %ID/g
- Biodistribution, Liver ([4]; 120 min after injection): 0.59 ± 0.09 %ID/g
- Biodistribution, Lung ([4]; 120 min after injection): 0.38 ± 0.11 %ID/g
- Biodistribution, Muscle ([4]; 120 min after injection): 0.15 ± 0.07 %ID/g
- Biodistribution, Pancreas ([4]; 120 min after injection): 0.29 ± 0.07 %ID/g
- Biodistribution, Spleen ([4]; 120 min after injection): 0.30 ± 0.17 %ID/g
- Biodistribution, Stomach ([4]; 120 min after injection): 0.24 ± 0.17 %ID/g
- Biodistribution, Tumor ([4]; 120 min after injection): 0.65 ± 0.12 %ID/g
- accumulation in inflammatory tissue (T3M4 tumor-bearing mice; T3M4-inflammation mice, 60 min after injection, PET): non-accumulation in inflammatory tissue
- tumor uptake (PET ROI-derived) (T3M4 tumor-bearing mice; co-injection of β-D-lactose (15 mg/kg)): 2.36 ± 0.11 %ID/g
- tumor uptake (PET ROI-derived) (T3M4 tumor-bearing mice; no blocking): 10.7 ± 1.01 %ID/g
- radioactivity uptake in SK-BR-3 tumor ([5]; SK-BR-3 breast tumor-bearing mice with no HIP/PAP expression, PET): low
- uptake ratio of tumor-to-blood [5, 7]: 0.37 ± 0.01
- uptake ratio of tumor-to-liver [5, 7]: 0.54 ± 0.01
- uptake ratio of tumor-to-muscle [5, 7]: 1.37 ± 0.05
SMILES: OC[C@H]1O[C@@H](O[C@H]2[C@H](O)[C@@H](O)[C@H](OCC[18F])O[C@@H]2CO)[C@H](O)[C@@H](O)[C@H]1O [^18F-FEL, 1'-^18F-fluoroethyl-β-D-lactose]
- reduction of specific tumor accumulation in PET competition assay (T3M4 tumor-bearing mice; co-injection of β-D-lactose): approximately 80%
